This experiment addresses T1, BCL6 (Homo sapiens, UniProt P41182).
T1 construct: endogenous in cells; host or cells: T47D breast cancer epithelial cells
Kind of experiment: Immunofluorescence protocol for high content imaging of BCL6 (degradation) in T47D cells, 3 days compound treatment. It counts as cell-based. The settings on record: for Dmax: T47D, read-out: Mean Dmax (%)** category; for DC50: read-out: Mean DC50 (nM)* category. An outline of the steps:
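Remaining BCL6 in breast cancer T47D cells was measured by high-content immunofluorescence imaging after 3 days of treatment with serially diluted compound (top 0.1 or 1 μM). Nuclei were stained with Hoechst and cells with CellMask.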

Structures are written as SMILES. A value given as a limit tells only on which side of the number the result lay.

`CNC(=O)COc1cc2cc(Nc3cc(N4CCC(F)(CN5CCC6(CC5)CN(c5ccc7c(c5)CN(C5CCC(=O)NC5=O)C7=O)C6(C)C)CC4)ncc3Cl)ccc2n(C(C)C)c1=O` (stereo not shown) [Compound 240, 2-{[6-({5-chloro-2-[4-({2-[2-(2,6-dioxopiperidin-3-yl)-1-oxo-2,3-dihydro-1H-isoindol-5-yl]-1,1-dimethyl-2,7-diazaspiro[3.5]nonan-7-yl}methyl)-4-fluoropiperidin-1-yl]pyridin-4-yl}amino)-2-oxo-1-(propan-2-yl)-1,2-dihydroquinolin-3-yl]oxy}-N-methylacetamide]: the greatest degradation seen (Dmax) (usually the greatest extent of degradation seen) is at least 70% and the DC50 (in general, the midpoint of the concentration-degradation curve) is below 10 nM.
On the same counts, the results for `CNC(=O)COc1cc2cc(Nc3nc(N4CCC(CN5CC(N6CCN(c7ccc8c(c7)C(=O)N(C7CCC(=O)NC7=O)C8=O)CC6)C5)CC4)ncc3Cl)ccc2n(C(C)C)c1=O` (stereo not shown) [Compound 241, 2-({6-[(5-chloro-2-{4-[(3-{4-[2-(2,6-dioxopiperidin-3-yl)-1,3-dioxo-2,3-dihydro-1H-isoindol-5-yl]piperazin-1-yl}azetidin-1-yl)methyl]piperidin-1-yl}pyrimidin-4-yl)amino]-2-oxo-1-(propan-2-yl)-1,2-dihydroquinolin-3-yl}oxy)-N-methylacetamide] are at least 70% and 10 to 50 nM.
On the same counts, the results for `CNC(=O)COc1cc2cc(Nc3nc(N4CCC(CN5CC(N6CCN(c7ccc8c(c7)CN(C7CCC(=O)NC7=O)C8=O)CC6)C5)CC4)ncc3Cl)ccc2n(C(C)C)c1=O` (stereo not shown) [Compound 242, 2-({6-[(5-chloro-2-{4-[(3-{4-[2-(2,6-dioxopiperidin-3-yl)-1-oxo-2,3-dihydro-1H-isoindol-5-yl]piperazin-1-yl}azetidin-1-yl)methyl]piperidin-1-yl}pyrimidin-4-yl)amino]-2-oxo-1-(propan-2-yl)-1,2-dihydroquinolin-3-yl}oxy)-N-methylacetamide] are at least 70% and below 10 nM.
The like results for `CNC(=O)COc1cc2cc(Nc3cc(N4CCC(O[C@H]5C[C@H](N6CCC(c7ccc8c(c7)C(=O)N(C7CCC(=O)NC7=O)C8=O)CC6)C5)CC4)ncc3Cl)ccc2n(C(C)C)c1=O` (stereo partly shown) [Compound 243, 2-({6-[(5-chloro-2-{4-[(1r,3r)-3-{4-[2-(2,6-dioxopiperidin-3-yl)-1,3-dioxo-2,3-dihydro-1H-isoindol-5-yl]piperidin-1-yl}cyclobutoxy]piperidin-1-yl}pyridin-4-yl)amino]-2-oxo-1-(propan-2-yl)-1,2-dihydroquinolin-3-yl}oxy)-N-methylacetamide] were, in that order, below 50% and 10 to 50 nM.
For the molecule `CNC(=O)COc1cc2cc(Nc3nc(N4CCC(O[C@H]5C[C@H](N6C[C@@H](C)N(c7ccc8c(c7)C(=O)N(C7CCC(=O)NC7=O)C8=O)[C@@H](C)C6)C5)CC4)ncc3Cl)ccc2n(C(C)C)c1=O` (stereo partly drawn) [Compound 244, 2-({6-[(5-chloro-2-{4-[(1r,3r)-3-[(3R,5S)-4-[2-(2,6-dioxopiperidin-3-yl)-1,3-dioxo-2,3-dihydro-1H-isoindol-5-yl]-3,5-dimethylpiperazin-1-yl]cyclobutoxy]piperidin-1-yl}pyrimidin-4-yl)amino]-2-oxo-1-(propan-2-yl)-1,2-dihydroquinolin-3-yl}oxy)-N-methylacetamide], the “Mean Dmax (%)** category” value is on record as “A (A >= 70)” and the DC50 lay within 10 to 50 nM.
Regarding `CNC(=O)COc1cc2cc(Nc3nc(N4CCC(O[C@H]5C[C@H](N6C[C@@H](C)N(c7ccc8c(c7)C(=O)N(C7CCC(=O)NC7=O)C8=O)[C@H](C)C6)C5)CC4)ncc3Cl)ccc2n(C(C)C)c1=O` (stereo partly drawn) [Compound 245, 2-({6-[(5-chloro-2-{4-[(1r,3r)-3-[(3R,5R)-4-[2-(2,6-dioxopiperidin-3-yl)-1,3-dioxo-2,3-dihydro-1H-isoindol-5-yl]-3,5-dimethylpiperazin-1-yl]cyclobutoxy]piperidin-1-yl}pyrimidin-4-yl)amino]-2-oxo-1-(propan-2-yl)-1,2-dihydroquinolin-3-yl}oxy)-N-methylacetamide], the greatest degradation seen (Dmax) was at least 70% and the half-maximal degradation concentration (DC50) is 10 to 50 nM.
On the same counts, the results for `CNC(=O)COc1cc2cc(Nc3nc(N4CCC(O[C@H]5C[C@H](N6C[C@H](C)N(c7ccc8c(c7)C(=O)N(C7CCC(=O)NC7=O)C8=O)[C@@H](C)C6)C5)CC4)ncc3Cl)ccc2n(C(C)C)c1=O` (stereo partly drawn) [Compound 246, 2-({6-[(5-chloro-2-{4-[(1r,3r)-3-[(3S,5S)-4-[2-(2,6-dioxopiperidin-3-yl)-1,3-dioxo-2,3-dihydro-1H-isoindol-5-yl]-3,5-dimethylpiperazin-1-yl]cyclobutoxy]piperidin-1-yl}pyrimidin-4-yl)amino]-2-oxo-1-(propan-2-yl)-1,2-dihydroquinolin-3-yl}oxy)-N-methylacetamide] are 50 to 70% and below 10 nM.
On the same counts, the results for `CNC(=O)COc1cc2c(F)c(Nc3cc(N4CCN(CC5CCC6(CC5)CN(c5cccc7c5C(=O)N(C5CCC(=O)NC5=O)C7=O)C6)CC4)ncc3Cl)ccc2n(C(C)C)c1=O` (stereo not shown) [Compound 247, 2-{[6-({5-chloro-2-[4-({2-[2-(2,6-dioxopiperidin-3-yl)-1,3-dioxo-2,3-dihydro-1H-isoindol-4-yl]-2-azaspiro[3.5]nonan-7-yl}methyl)piperazin-1-yl]pyridin-4-yl}amino)-5-fluoro-2-oxo-1-(propan-2-yl)-1,2-dihydroquinolin-3-yl]oxy}-N-methylacetamide] are at least 70% and below 10 nM.
With `CNC(=O)COc1cc2cc(Nc3nc(N4CCC(O[C@H]5C[C@H](N6[C@H](C)CN(c7ccc8c(c7)C(=O)N(C7CCC(=O)NC7=O)C8=O)C[C@@H]6C)C5)CC4)ncc3Cl)ccc2n(C(C)C)c1=O` (stereo partly drawn) [Compound 248, 2-[[6-[[5-chloro-2-[4-[3-[(2R,6S)-4-[2-(2,6-dioxo-3-piperidyl)-1,3-dioxo-isoindolin-5-yl]-2,6-dimethyl-piperazin-1-yl]cyclobutoxy]-1-piperidyl]pyrimidin-4-yl]amino]-1-isopropyl-2-oxo-3-quinolyl]oxy]-N-methyl-acetamide], the greatest degradation seen (Dmax) is 50 to 70% and the DC50 was below 10 nM.
On the same counts, the results for `CNC(=O)COc1cc2cc(Nc3nc(N4CCC(O[C@H]5C[C@H](N6[C@H](C)CN(c7ccc8c(c7)C(=O)N(C7CCC(=O)NC7=O)C8=O)C[C@H]6C)C5)CC4)ncc3Cl)ccc2n(C(C)C)c1=O` (stereo partly drawn) [Compound 249, 2-({6-[(5-chloro-2-{4-[(1r,3r)-3-[(2R,6R)-4-[2-(2,6-dioxopiperidin-3-yl)-1,3-dioxo-2,3-dihydro-1H-isoindol-5-yl]-2,6-dimethylpiperazin-1-yl]cyclobutoxy]piperidin-1-yl}pyrimidin-4-yl)amino]-2-oxo-1-(propan-2-yl)-1,2-dihydroquinolin-3-yl}oxy)-N-methylacetamide] are below 50% and 10 to 50 nM.
For the molecule `CNC(=O)COc1cc2cc(Nc3nc(N4CCC(O[C@H]5C[C@H](N6[C@H](C)CN(c7ccc8c(c7)CN(C7CCC(=O)NC7=O)C8=O)C[C@H]6C)C5)CC4)ncc3Cl)ccc2n(C(C)C)c1=O` (stereo partly drawn) [Compound 250, 2-({6-[(5-chloro-2-{4-[(1r,3r)-3-[(2R,6R)-4-[2-(2,6-dioxopiperidin-3-yl)-1-oxo-2,3-dihydro-1H-isoindol-5-yl]-2,6-dimethylpiperazin-1-yl]cyclobutoxy]piperidin-1-yl}pyrimidin-4-yl)amino]-2-oxo-1-(propan-2-yl)-1,2-dihydroquinolin-3-yl}oxy)-N-methylacetamide], the Dmax was 50 to 70% and the 50% degradation concentration (DC50) was below 10 nM.

The values above are taken from patent US11986532B2 (Arvinas Operations, Inc., priority 2021, dated 2024).
